Assay results published in ChEMBL document CHEMBL1201862, “PubChem BioAssay data set” (2004).
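Cells were grown in 96-well plates and exposed to each compound for 48 hours at five concentrations; endpoints were interpolated linearly between bracketing concentrations, or set to the highest concentration if not reached. At the GI50, growth is halved.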 The source made the active and inactive calls. No stated cut-off is given here; in the data, active = GI50 up to about 1.1 µM and inactive = higher.

Experiments:
Test in all cases: inhibition of tumour cell growth, NCI panel, 48 h
HCC 2998 = test system: HCC 2998
SF-268 = test system: SF-268
OVCAR-5 = test system: OVCAR-5
Hs-578T = test system: Hs-578T
RPMI-8226 = test system: RPMI-8226
LOX IMVI = test system: LOX IMVI
UACC-257 = test system: UACC-257
MDA-N = test system: MDA-N
MDA-MB-231 = test system: MDA-MB-231
UACC-62 = test system: UACC-62
SK-OV-3 = test system: SK-OV-3
OVCAR-8 = test system: OVCAR-8
NCI-H226 = test system: NCI-H226
SNB-75 = test system: SNB-75
SNB-19 = test system: SNB-19
SK-MEL-5 = test system: SK-MEL-5
TK-10 = test system: TK-10
NCI-H460 = test system: NCI-H460
786-0 = test system: 786-0
SF-539 = test system: SF-539

Measured: GI50

CC(=O)Nc1ccc(C(=O)N[C@@H]2C(=O)N3[C@@H]2SC(C)(C)[C@@H]3C(=O)O)cn1
inactive: HCC 2998 > 100 µM | SF-268 > 100 µM | OVCAR-5 > 100 µM | Hs-578T > 100 µM | RPMI-8226 > 100 µM | LOX IMVI > 100 µM | UACC-257 > 100 µM | MDA-N > 100 µM | MDA-MB-231 > 100 µM | UACC-62 > 100 µM | SK-OV-3 > 100 µM | OVCAR-8 > 100 µM | NCI-H226 > 100 µM | SNB-75 > 100 µM | SNB-19 > 100 µM | SK-MEL-5 > 100 µM | TK-10 > 100 µM | NCI-H460 > 100 µM | 786-0 > 100 µM

Cc1cc2nc(O)c(C(C)C(=O)c3ccc(Cl)cc3)nc2cc1C (stereo unspecified)
inactive: HCC 2998 13.5 µM | SF-268 47.5 µM | OVCAR-5 56.1 µM | Hs-578T 54.6 µM | SF-539 23.4 µM | RPMI-8226 43.2 µM | LOX IMVI 35.6 µM | UACC-257 16.6 µM | MDA-N 17.8 µM | MDA-MB-231 36.7 µM | UACC-62 46.9 µM | SK-OV-3 > 100 µM | OVCAR-8 32.5 µM | NCI-H226 35 µM | SNB-75 35.4 µM | SNB-19 56.4 µM | SK-MEL-5 38.1 µM | TK-10 27 µM | NCI-H460 29.9 µM | 786-0 27.6 µM

Nc1ccc(CCN2CCN(CCCc3ccccc3)CC2)cc1
inactive: HCC 2998 34.4 µM | SF-268 > 100 µM | OVCAR-5 > 100 µM | Hs-578T > 100 µM | SF-539 80.5 µM | RPMI-8226 46.7 µM | LOX IMVI 63.7 µM | UACC-257 62.4 µM | MDA-N > 100 µM | MDA-MB-231 60.8 µM | UACC-62 > 100 µM | SK-OV-3 > 100 µM | OVCAR-8 47.1 µM | NCI-H226 > 100 µM | SNB-19 > 100 µM | SK-MEL-5 29.6 µM | TK-10 > 100 µM | NCI-H460 63.4 µM | 786-0 44.3 µM

O=C1/C(=C(/Br)I)c2ccccc2-c2ccccc21
inactive: HCC 2998 3.76 µM | SF-268 14.1 µM | OVCAR-5 11.9 µM | Hs-578T 28.6 µM | SF-539 14.6 µM | RPMI-8226 2.97 µM | LOX IMVI 5.3 µM | UACC-257 6.01 µM | MDA-N 2.95 µM | MDA-MB-231 6.14 µM | UACC-62 7.19 µM | SK-OV-3 15.7 µM | OVCAR-8 16.9 µM | NCI-H226 18.8 µM | SNB-75 15.5 µM | SNB-19 13.9 µM | SK-MEL-5 16 µM | TK-10 8.97 µM | NCI-H460 17.8 µM | 786-0 3.34 µM

CC(C)CCC[C@@H](C)[C@H]1CC[C@H]2[C@@H]3CC=C4C[C@@H](OC(=O)c5cccc6c(=O)c7ccccc7[nH]c56)CC[C@]4(C)[C@H]3CC[C@]12C
inactive: HCC 2998 > 75 µM | SF-268 > 75 µM | OVCAR-5 > 75 µM | Hs-578T > 75 µM | SF-539 > 75 µM | RPMI-8226 > 75 µM | LOX IMVI > 75 µM | UACC-257 > 75 µM | MDA-N 1.56 µM | MDA-MB-231 3.91 µM | UACC-62 > 75 µM | SK-OV-3 > 75 µM | OVCAR-8 > 75 µM | NCI-H226 > 75 µM | SNB-75 > 75 µM | SNB-19 > 75 µM | SK-MEL-5 > 75 µM | TK-10 > 75 µM | 786-0 > 75 µM

CC1=CC(=O)C(C(O)(C(F)(F)F)C(F)(F)F)C(C)(C)C1 (stereo unspecified)
inactive: HCC 2998 > 10 µM | SF-268 > 10 µM | Hs-578T > 10 µM | SF-539 > 10 µM | RPMI-8226 > 10 µM | LOX IMVI > 10 µM | UACC-257 > 10 µM | MDA-N > 10 µM | MDA-MB-231 > 10 µM | UACC-62 > 10 µM | SK-OV-3 > 10 µM | OVCAR-8 > 10 µM | NCI-H226 > 10 µM | SNB-75 > 10 µM | SNB-19 > 10 µM | SK-MEL-5 > 10 µM | TK-10 > 10 µM | NCI-H460 > 10 µM | 786-0 > 10 µM

CC(=O)OCc1ccc2oc(=O)c(C(=O)Oc3cccc(Cl)c3)cc2c1
inactive: HCC 2998 19.4 µM | SF-268 > 100 µM | OVCAR-5 > 100 µM | Hs-578T > 100 µM | SF-539 46.2 µM | RPMI-8226 > 100 µM | LOX IMVI > 100 µM | UACC-257 62.7 µM | MDA-N > 100 µM | MDA-MB-231 32.4 µM | UACC-62 17.4 µM | SK-OV-3 > 100 µM | OVCAR-8 > 100 µM | NCI-H226 > 100 µM | SNB-75 37.8 µM | SNB-19 83 µM | SK-MEL-5 > 100 µM | TK-10 31.5 µM | NCI-H460 37.9 µM | 786-0 36.1 µM

Cn1cc(NC(=O)Nc2cc(C(=O)Nc3cc(C(=O)Nc4cc(S(=O)(=O)O)c5cc(S(=O)(=O)O)cc(S(=O)(=O)O)c5c4)n(C)c3)n(C)c2)cc1C(=O)Nc1cc(C(=O)Nc2cc(S(=O)(=O)O)c3cc(S(=O)(=O)O)cc(S(=O)(=O)O)c3c2)n(C)c1
inactive: HCC 2998 > 100 µM | SF-268 > 100 µM | OVCAR-5 > 100 µM | Hs-578T > 100 µM | SF-539 > 100 µM | RPMI-8226 > 100 µM | UACC-257 > 100 µM | MDA-N > 100 µM | MDA-MB-231 > 100 µM | UACC-62 > 100 µM | SK-OV-3 > 100 µM | OVCAR-8 > 100 µM | NCI-H226 > 100 µM | SNB-75 50.1 µM | SNB-19 > 100 µM | SK-MEL-5 > 100 µM | TK-10 87.1 µM | NCI-H460 > 100 µM | 786-0 > 100 µM

O=C(O)Cc1cccc2c(=O)c3ccccc3oc12
inactive: HCC 2998 22 µM | SF-268 > 100 µM | Hs-578T > 100 µM | SF-539 > 100 µM | RPMI-8226 > 100 µM | LOX IMVI > 100 µM | UACC-257 > 100 µM | MDA-N > 100 µM | MDA-MB-231 > 100 µM | UACC-62 24.3 µM | SK-OV-3 17.7 µM | OVCAR-8 > 100 µM | NCI-H226 > 100 µM | SNB-19 > 100 µM | SK-MEL-5 > 100 µM | TK-10 > 100 µM | NCI-H460 > 100 µM | 786-0 > 100 µM

CC(C)CCC[C@@H](C)C1CCC2[C@@H]3CCC4CC(CCC=C(c5cc(Cl)c(OC(=O)c6ccccc6)c(C(=O)O)c5)c5cc(Cl)c(OC(=O)c6ccccc6)c(C(=O)O)c5)CC[C@]4(C)C3CC[C@@]21C (stereo partly specified)
inactive: HCC 2998 > 100 µM | OVCAR-5 > 100 µM | Hs-578T > 100 µM | SF-539 > 100 µM | RPMI-8226 > 100 µM | UACC-257 58.2 µM | MDA-N > 100 µM | MDA-MB-231 12.6 µM | UACC-62 > 100 µM | SK-OV-3 > 100 µM | OVCAR-8 > 100 µM | NCI-H226 85.7 µM | SNB-75 > 100 µM | SNB-19 > 100 µM | SK-MEL-5 28.8 µM | TK-10 52.2 µM | NCI-H460 > 100 µM | 786-0 22.6 µM
